Data taken from ChEMBL document CHEMBL1126675, “Structure-based design of inhibitors of purine nucleoside phosphorylase. 1. 9-(arylmethyl) derivatives of 9-deazaguanine” (J Med Chem, 1993).

Columns and labels:
[1] = molecular target: T1, Purine nucleoside phosphorylase (Bos taurus, UniProt P55859); test: Inhibition of purine nucleoside phosphorylase against the enzyme from calf spleen in 1 mM phosphate
T1 sequence (P55859 whole entry): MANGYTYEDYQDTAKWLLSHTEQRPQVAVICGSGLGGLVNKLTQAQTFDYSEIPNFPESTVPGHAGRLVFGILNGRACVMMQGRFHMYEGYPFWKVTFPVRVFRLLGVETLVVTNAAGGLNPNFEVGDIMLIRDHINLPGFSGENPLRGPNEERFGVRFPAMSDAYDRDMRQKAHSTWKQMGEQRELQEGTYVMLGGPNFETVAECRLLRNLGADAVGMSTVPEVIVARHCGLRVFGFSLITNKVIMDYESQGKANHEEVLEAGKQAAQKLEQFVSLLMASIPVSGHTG

[2] = molecular target: T1, Purine nucleoside phosphorylase; test: Inhibition of Purine nucleoside phosphorylase was evaluated against the enzyme from calf spleen in 50 mM phosphate
[3] = molecular target: T2, Purine nucleoside phosphorylase (Homo sapiens, UniProt P00491); test: Inhibition of Purine nucleoside phosphorylase was evaluated against the enzyme from Human erythrocytic in 50 mM phosphate; type: tissue-based
T2 sequence (P00491 whole entry): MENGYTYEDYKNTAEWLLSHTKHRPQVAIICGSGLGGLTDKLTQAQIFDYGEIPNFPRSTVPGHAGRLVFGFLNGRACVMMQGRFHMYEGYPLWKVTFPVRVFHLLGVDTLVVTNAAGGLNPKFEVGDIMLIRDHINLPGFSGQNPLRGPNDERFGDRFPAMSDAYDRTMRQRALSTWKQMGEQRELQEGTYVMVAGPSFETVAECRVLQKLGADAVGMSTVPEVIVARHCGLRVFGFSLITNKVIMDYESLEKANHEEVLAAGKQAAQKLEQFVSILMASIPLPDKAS

[4] = molecular target: T1, Purine nucleoside phosphorylase; test: Inhibition of Purine nucleoside phosphorylase was evaluated against the enzyme from calf spleen in 1 mM phosphate; type: tissue-based

Compound Nc1nc(O)c2[nH]cc(Cc3cc(Cl)cc(Cl)c3Cl)c2n1 has an IC50 [1] of 240 nM and an IC50 [2] of 10000 nM.
Nc1nc(O)c2[nH]c(Nc3cccnc3)nc2n1 showed an IC50 [3] of 21900 nM.
With Nc1nc(O)c2c(n1)CC(Cc1ccsc1)=N2 the IC50 [3] was 67 nM.
Compound Nc1nc(O)c2c(n1)CC(NCc1ccsc1)=N2 has an IC50 [3] of 630 nM.
In the case of Cc1ccsc1CC1=Nc2c(O)nc(N)nc2C1, the IC50 [3] is reported as 47600 nM.
Work on Nc1nc2c(Cc3cccc(Oc4ccccc4)c3)c[nH]c2c(=O)[nH]1 yielded an IC50 [2] of 740 nM.
Compound Nc1nc(O)c2c(n1)CC(NCc1cccs1)=N2 has an IC50 [3] of 1000 nM.
Nc1nc(O)c2c(n1)CC(NCc1ccco1)=N2 was tested, and the IC50 [3] was 750 nM.
Compound Nc1nc(O)c2[nH]c(Cc3ccsc3)nc2n1 has an IC50 [3] of 11000 nM.
Nc1nc(O)c2[nH]c(Cc3ccco3)nc2n1 gave an IC50 [3] of 17900 nM.
Work on Cc1ccsc1Cc1nc2nc(N)[nH]c(=O)c2[nH]1 yielded an IC50 [3] of 47600 nM.
In the case of NC1=NC(=O)C2NC=C(Cc3ccsc3)C2N1 (configuration not stated), the IC50 [1] is reported as 0.067 nM and the Ki [4] is reported as 15 nM.
Nc1nc(O)c2c(n1)CC(Cc1ccccc1)=N2 was tested, and the IC50 [3] was 85 nM.
Work on NC1=NC(=O)C2NC(N)=C(Cc3ccsc3)C2N1 (configuration not stated) yielded an IC50 [1] of 0.63 nM.
Nc1nc(O)c2[nH]c(Cc3cccs3)nc2n1 was tested, and the IC50 [3] was 11000 nM.
Compound Nc1nc2c(Cc3cccc(F)c3)c[nH]c2c(=O)[nH]1 has an IC50 [1] of 24 nM and an IC50 [2] of 220 nM.
With Cc1cccc(Cc2c[nH]c3c(=O)[nH]c(N)nc23)c1 the IC50 [1] was 57 nM and the IC50 [2] was 270 nM.
Compound Nc1nc2c(Cc3ccc(Cl)c(Cl)c3)c[nH]c2c(=O)[nH]1 has an IC50 [1] of 17 nM and an IC50 [2] of 250 nM.
NC1=NC(=O)C2NC=C(Cc3ccccc3)C2N1 (configuration not stated) gave a Ki [2] of 100 nM and a Ki [4] of 12 nM.
For Nc1nc(O)c2[nH]c(Cc3ccccc3)nc2n1, the IC50 [3] was 29600 nM.
COc1cccc(Cc2c[nH]c3c(O)nc(N)nc23)c1 showed an IC50 [1] of 82 nM and an IC50 [2] of 660 nM.
In the case of Nc1nc(O)c2nc(N)n(Cc3cccs3)c2n1, the IC50 [1] is reported as 160 nM and the IC50 [2] is reported as 160 nM.
Compound Nc1nc2c(Cc3ccccc3O)c[nH]c2c(=O)[nH]1 has an IC50 [1] of 270 nM and an IC50 [2] of 2000 nM.
Nc1nc2c(Cc3cccc(Cl)c3)c[nH]c2c(=O)[nH]1 showed an IC50 [1] of 20 nM and an IC50 [2] of 150 nM.
Compound Nc1nc(O)c2c(n1)CC(NCc1ccccc1)=N2 has an IC50 [3] of 850 nM.
Cc1ccsc1CNC1=Nc2c(O)nc(N)nc2C1 gave an IC50 [3] of 4050 nM.
In the case of Nc1nc(O)c2c(n1)CC(Cc1ccco1)=N2, the IC50 [3] is reported as 57 nM.
Compound Nc1nc2c(Cc3ccc(I)cc3)c[nH]c2c(=O)[nH]1 has an IC50 [1] of 23 nM and an IC50 [2] of 270 nM.
Work on Nc1nc(O)c2c(n1)CC(Cc1cccs1)=N2 yielded an IC50 [3] of 30 nM.
For Nc1nc2nc(NCc3ccccc3)[nH]c2c(=O)[nH]1, the IC50 [3] was 470 nM.
Nc1nc2nc(-c3cccnc3)[nH]c2c(=O)[nH]1 gave an IC50 [3] of 57000 nM.
With Cc1ccsc1CNc1nc2[nH]c(N)nc(O)c-2n1 the IC50 [3] was 4050 nM.
For Nc1nc(O)c2[nH]cc(Cc3ccco3)c2n1, the IC50 [1] was 83 nM.
In the case of Nc1nc(O)c2[nH]c(NCc3ccco3)nc2n1, the IC50 [3] is reported as 250 nM.
Compound Nc1nc(O)c2[nH]c(NCc3cccs3)nc2n1 has an IC50 [3] of 160 nM.
Work on Nc1nc(O)c2c(n1)CC(c1cccnc1)=N2 yielded an IC50 [2] of 0.16 nM.
Compound Nc1nc2c(Cc3cccc(C(F)(F)F)c3)c[nH]c2c(=O)[nH]1 has an IC50 [1] of 36 nM and an IC50 [2] of 190 nM.
Nc1nc2nc(NCc3ccsc3)[nH]c2c(=O)[nH]1 showed an IC50 [3] of 85 nM.
For Nc1nc(O)c2[nH]cc(Cc3ccsc3)c2n1, the IC50 [1] was 25 nM.
Compound Nc1nc(O)c2[nH]cc(Cc3ccc(O)cc3)c2n1 has an IC50 [1] of 260 nM and an IC50 [2] of 2300 nM.
Nc1nc(O)c2[nH]cc(Cc3ccccc3Cl)c2n1 was tested, and the IC50 [1] was 120 nM and the IC50 [2] was 2520 nM.
Work on Nc1nc2c(Cc3cccnc3)c[nH]c2c(=O)[nH]1 [PELDESINE] yielded an IC50 [1] of 25 nM and an IC50 [2] of 190 nM.
